These are literature values, as cited in patent publication US8530463B2, “Multimodal particulate formulations” (Hale Biopharma Ventures LLC, priority 2007, dated 2013).

Turning to `Cc1ncc2n1-c1ccc(Cl)cc1C(c1ccccc1F)=NC2` [Midazolam, 8-chloro-6-(2-fluorophenyl)-1-methyl-4H-imidazo[1,5-a]benzodiazepine], the “solubility in most aqueous solutions” value (neutral pH (e.g. about 6 to 8)) is “relatively insoluble”. Besides, the solubility in water entry (pH lower than about 4) is recorded as “soluble”.
